In patent US11395847B2, “Acylated GLP-1/GLP-2 dual agonists” (Zealand Pharma A/S, priority 2016, dated 2022):
Where a SMILES comes first, the peptide text is derived from it.

How the values were obtained:
[1] = target: T1, human GLP-1 receptor (Homo sapiens, UniProt P43220); assay: GLP-1 receptor potency assay (cAMP ALPHASCREEN, HEK293 cells stably expressing GLP-1 R); assay type: cell-based; conditions: cAMP response, HEK293 cells expressing human GLP-1 R
T1 construct: expressed in transfected cells
Source text: One useful in vitro assay for measuring GLP-1 and GLP-2 receptor activity is quantitation of cAMP, i.e. 3′-5′-cyclic adenosine monophosphate, which is a second messenger essential in many biological processes, and one of the most ubiquitous mechanisms for regulating cellular functions.
The cDNA encoding the human glucagon-like peptide 1 receptor (GLP-1 R) (primary accession number P43220) was cloned from the cDNA BC112126 (MGC:138331/IMAGE:8327594). The DNA encoding the GLP-1-R was amplified by PCR using primers encoding terminal restriction sites for subcloning. The 5′-end primers additionally encoded a near Kozak consensus sequence to ensure efficient translation. […] The PCR products encoding the GLP-1-R were subcloned into a mammalian expression vector containing a neomycin (G418) resistance marker. The mammalian expression vectors encoding the GLP-1-R were transfected into HEK293 cells by a standard calcium phosphate transfection method. 48 hours post-transfection, cells were seeded for limited dilution cloning and selected with 1 mg/ml G418 in the culture medium. Following 3 weeks in G418 selection clones were picked and tested in a functional GLP-1 receptor potency assay as described below.
The cAMP ALPHASCREEN® assay from Perkin Elmer was used to quantitate the cAMP response to activation of the GLP1 and GLP2 receptor, respectively. […] Data from test compounds eliciting an increase in the intracellular level of cAMP were normalized relative to the positive and negative control (vehicle) to calculate the EC50 and maximal response from the concentration response curve.

[2] = target: T2, human GLP-2 receptor (Homo sapiens, UniProt O95838, D470N); assay: GLP-2 receptor potency assay (cAMP ALPHASCREEN, HEK293 cells stably expressing GLP-2 R); assay type: cell-based; conditions: cAMP response, HEK293 cells expressing human GLP-2 R; read-out: EC50 GLP-2
T2 construct: expressed in transfected cells
T2 sequence (O95838 1-553 D470N): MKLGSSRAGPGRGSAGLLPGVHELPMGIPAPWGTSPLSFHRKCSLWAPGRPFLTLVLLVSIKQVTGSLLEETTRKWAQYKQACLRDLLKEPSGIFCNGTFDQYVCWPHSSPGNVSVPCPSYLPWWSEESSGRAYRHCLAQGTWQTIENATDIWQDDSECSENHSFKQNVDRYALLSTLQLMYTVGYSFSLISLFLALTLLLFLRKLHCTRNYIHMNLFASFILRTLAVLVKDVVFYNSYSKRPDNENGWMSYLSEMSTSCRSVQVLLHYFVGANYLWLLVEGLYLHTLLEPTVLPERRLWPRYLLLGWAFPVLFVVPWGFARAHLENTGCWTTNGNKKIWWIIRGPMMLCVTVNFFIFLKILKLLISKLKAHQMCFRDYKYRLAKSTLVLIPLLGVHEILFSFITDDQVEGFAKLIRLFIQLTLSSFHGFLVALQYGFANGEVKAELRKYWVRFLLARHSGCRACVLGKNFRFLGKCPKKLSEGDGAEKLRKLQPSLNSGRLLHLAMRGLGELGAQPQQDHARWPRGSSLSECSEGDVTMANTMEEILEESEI
Summary of the method: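 HEK293 clones stably transfected with the human GLP-2 receptor, selected with G418, were used. Intracellular cAMP was quantified by AlphaScreen. Responses were normalised to positive and vehicle controls, and EC50 and maximal response were taken from concentration-response curves.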

T1 sequence (P43220 24-463): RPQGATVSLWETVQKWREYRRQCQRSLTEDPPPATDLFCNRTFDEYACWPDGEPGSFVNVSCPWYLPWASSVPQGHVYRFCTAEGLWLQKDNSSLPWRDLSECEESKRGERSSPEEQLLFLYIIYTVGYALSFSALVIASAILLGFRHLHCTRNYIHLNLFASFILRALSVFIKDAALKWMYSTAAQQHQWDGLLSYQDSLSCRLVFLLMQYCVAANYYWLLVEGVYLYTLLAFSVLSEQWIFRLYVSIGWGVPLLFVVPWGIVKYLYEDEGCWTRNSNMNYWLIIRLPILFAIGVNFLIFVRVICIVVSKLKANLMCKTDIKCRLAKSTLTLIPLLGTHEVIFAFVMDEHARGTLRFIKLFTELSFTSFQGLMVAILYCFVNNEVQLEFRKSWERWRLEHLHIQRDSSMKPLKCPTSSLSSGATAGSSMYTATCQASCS

EC50 [1]	EC50 [2]	Structure (SMILES)
0.13 nM	0.2 nM	CC[C@H](C)[C@H](NC(=O)[C@H](Cc1ccccc1)NC(=O)[C@H](CC(=O)O)NC(=O)[C@H](CCCNC(=N)N)NC(=O)[C@H](C)NC(=O)[C@H](C)NC(=O)[C@H](CCCCNC(=O)COCCOCCNC(=O)[C@H](CCCCN)NC(=O)[C@H](CCC(=O)O)NC(=O)[C@H](CCCCN)NC(=O)CC[C@H](NC(=O)CCCCCCCCCCCCCCCCCCC(=O)O)C(=O)O)NC(=O)CNC(=O)[C@H](CCC(=O)O)NC(=O)[C@H](CC(C)C)NC(=O)[C@@H](NC(=O)[C@@H](NC(=O)[C@H](C)NC(=O)[C@H](CC(C)C)NC(=O)[C@H](CCC(=O)O)NC(=O)[C@H](CO)NC(=O)[C@@H](NC(=O)[C@H](Cc1ccccc1)NC(=O)[C@H](CO)NC(=O)CNC(=O)[C@H](CCC(=O)O)NC(=O)C(C)(C)NC(=O)[C@@H](N)Cc1c[nH]cn1)[C@@H](C)O)[C@@H](C)O)[C@@H](C)CC)C(=O)N[C@@H](C)C(=O)N[C@@H](Cc1c[nH]c2ccccc12)C(=O)N[C@@H](CC(C)C)C(=O)N[C@H](C(=O)N[C@@H](CCC(=O)O)C(=O)N[C@@H](Cc1c[nH]cn1)C(=O)N[C@@H](CCCCN)C(=O)N[C@H](C(=O)N[C@H](C(=O)N[C@@H](CC(=O)O)C(=O)O)[C@@H](C)O)[C@@H](C)CC)[C@@H](C)CC [Compound 61] (HELM PEPTIDE1{H.[Aib].E.G.S.F.T.S.E.L.A.T.I.L.E.G.K.A.A.R.D.F.I.A.W.L.I.E.H.K.I.T.D}|PEPTIDE2{[O=C(O)CCCCCCCCCCCCCCCCCCC(=O)[*:2]].[gGlu].K.E.K.[O=C(COCCOCCN[*:1])[*:2]]}$PEPTIDE1,PEPTIDE2,17:R3-6:R2$$$V2.0)
1.8 nM	0.087 nM	CC[C@H](C)[C@H](NC(=O)[C@H](Cc1ccccc1)NC(=O)[C@H](CC(=O)O)NC(=O)[C@H](CCCNC(=N)N)NC(=O)[C@H](C)NC(=O)[C@H](C)NC(=O)[C@H](CC(C)C)NC(=O)[C@H](CCCCNC(=O)CC[C@H](NC(=O)CCCCCCCCCCCCCCCCC(=O)O)C(=O)O)NC(=O)[C@H](CC(=O)O)NC(=O)[C@H](CC(C)C)NC(=O)[C@@H](NC(=O)[C@@H](NC(=O)[C@H](C)NC(=O)[C@H](CC(C)C)NC(=O)[C@H](CCC(=O)O)NC(=O)[C@H](CO)NC(=O)[C@H](CO)NC(=O)[C@H](Cc1ccccc1)NC(=O)[C@@H](NC(=O)CNC(=O)[C@H](CCC(=O)O)NC(=O)C(C)(C)NC(=O)[C@@H](N)Cc1c[nH]cn1)[C@@H](C)O)[C@@H](C)O)[C@@H](C)CC)C(=O)N[C@@H](C)C(=O)N[C@@H](Cc1c[nH]c2ccccc12)C(=O)N[C@@H](CC(C)C)C(=O)N[C@H](C(=O)N[C@@H](CCC(=O)O)C(=O)N[C@@H](Cc1c[nH]cn1)C(=O)N[C@@H](CCCCN)C(=O)N[C@H](C(=O)N[C@H](C(=O)N[C@@H](CC(=O)O)C(=O)O)[C@@H](C)O)[C@@H](C)CC)[C@@H](C)CC [Compound 10] (HELM PEPTIDE1{H.[Aib].E.G.T.F.S.S.E.L.A.T.I.L.D.K.L.A.A.R.D.F.I.A.W.L.I.E.H.K.I.T.D}|PEPTIDE2{[O=C(O)CCCCCCCCCCCCCCCCC(=O)[*:2]].[gGlu]}$PEPTIDE1,PEPTIDE2,16:R3-2:R2$$$V2.0)
0.13 nM	0.35 nM	CC[C@H](C)[C@H](NC(=O)[C@H](Cc1ccccc1)NC(=O)[C@H](CC(=O)O)NC(=O)[C@H](CCCCNC(=O)COCCOCCNC(=O)[C@H](CCCCN)NC(=O)[C@H](CCC(=O)O)NC(=O)[C@H](CCCCN)NC(=O)CC[C@H](NC(=O)CCCCCCCCCCCCCCCCCCC(=O)O)C(=O)O)NC(=O)[C@H](C)NC(=O)[C@H](C)NC(=O)[C@H](CCC(N)=O)NC(=O)[C@H](CCC(=O)O)NC(=O)[C@H](CC(=O)O)NC(=O)[C@H](CC(C)C)NC(=O)[C@@H](NC(=O)[C@@H](NC(=O)[C@H](C)NC(=O)[C@H](CC(C)C)NC(=O)[C@H](CCC(=O)O)NC(=O)[C@H](CO)NC(=O)[C@@H](NC(=O)[C@H](Cc1ccccc1)NC(=O)[C@@H](NC(=O)CNC(=O)[C@H](CCC(=O)O)NC(=O)C(C)(C)NC(=O)[C@@H](N)Cc1c[nH]cn1)[C@@H](C)O)[C@@H](C)O)[C@@H](C)O)[C@@H](C)CC)C(=O)N[C@@H](C)C(=O)N[C@@H](Cc1c[nH]c2ccccc12)C(=O)N[C@@H](CC(C)C)C(=O)N[C@H](C(=O)N[C@@H](CCC(=O)O)C(=O)N[C@@H](Cc1c[nH]cn1)C(=O)N[C@@H](CCCCN)C(=O)N[C@H](C(=O)N[C@H](C(=O)N[C@@H](CC(=O)O)C(=O)O)[C@@H](C)O)[C@@H](C)CC)[C@@H](C)CC [Compound 65] (HELM PEPTIDE1{H.[Aib].E.G.T.F.T.S.E.L.A.T.I.L.D.E.Q.A.A.K.D.F.I.A.W.L.I.E.H.K.I.T.D}|PEPTIDE2{[O=C(O)CCCCCCCCCCCCCCCCCCC(=O)[*:2]].[gGlu].K.E.K.[O=C(COCCOCCN[*:1])[*:2]]}$PEPTIDE1,PEPTIDE2,20:R3-6:R2$$$V2.0)
0.02 nM	0.18 nM	CC[C@H](C)[C@H](NC(=O)[C@H](Cc1ccccc1)NC(=O)[C@H](CC(=O)O)NC(=O)[C@H](CCCNC(=N)N)NC(=O)[C@H](C)NC(=O)[C@H](C)NC(=O)[C@H](CCC(N)=O)NC(=O)[C@H](CCCCNC(=O)[C@H](CCCCN)NC(=O)[C@H](CCC(=O)O)NC(=O)[C@H](CCCCN)NC(=O)CC[C@H](NC(=O)CCCCCCCCCCCCCCCCCCC(=O)O)C(=O)O)NC(=O)[C@H](CC(=O)O)NC(=O)[C@H](CC(C)C)NC(=O)[C@@H](NC(=O)[C@@H](NC(=O)[C@H](C)NC(=O)[C@H](CC(C)C)NC(=O)[C@H](CCC(=O)O)NC(=O)[C@H](CO)NC(=O)[C@@H](NC(=O)[C@H](Cc1ccccc1)NC(=O)[C@@H](NC(=O)CNC(=O)[C@H](CCC(=O)O)NC(=O)C(C)(C)NC(=O)[C@@H](N)Cc1c[nH]cn1)[C@@H](C)O)[C@@H](C)O)[C@@H](C)O)[C@@H](C)CC)C(=O)N[C@@H](C)C(=O)N[C@@H](Cc1c[nH]c2ccccc12)C(=O)N[C@@H](CC(C)C)C(=O)N[C@H](C(=O)N[C@@H](CCC(N)=O)C(=O)N[C@@H](Cc1c[nH]cn1)C(=O)N[C@@H](CCCCN)C(=O)N[C@H](C(=O)N[C@H](C(=O)N[C@@H](CC(=O)O)C(=O)O)[C@@H](C)O)[C@@H](C)CC)[C@@H](C)CC [Compound 51] (HELM PEPTIDE1{H.[Aib].E.G.T.F.T.S.E.L.A.T.I.L.D.K.Q.A.A.R.D.F.I.A.W.L.I.Q.H.K.I.T.D}|PEPTIDE2{[O=C(O)CCCCCCCCCCCCCCCCCCC(=O)[*:2]].[gGlu].K.E.K}$PEPTIDE1,PEPTIDE2,16:R3-5:R2$$$V2.0)
0.27 nM	0.15 nM	CC[C@H](C)[C@H](NC(=O)[C@H](Cc1ccccc1)NC(=O)[C@H](CC(=O)O)NC(=O)[C@H](CCCNC(=N)N)NC(=O)[C@H](C)NC(=O)[C@H](C)NC(=O)[C@H](CCCCNC(=O)COCCOCCNC(=O)[C@H](CCCCN)NC(=O)[C@H](CCC(=O)O)NC(=O)[C@H](CCCCN)NC(=O)CC[C@H](NC(=O)CCCCCCCCCCCCCCCCCCC(=O)O)C(=O)O)NC(=O)[C@H](C)NC(=O)[C@H](CC(=O)O)NC(=O)[C@H](CC(C)C)NC(=O)[C@@H](NC(=O)[C@@H](NC(=O)[C@H](C)NC(=O)[C@H](CC(C)C)NC(=O)[C@H](CCC(=O)O)NC(=O)[C@H](CO)NC(=O)[C@@H](NC(=O)[C@H](Cc1ccccc1)NC(=O)[C@H](CO)NC(=O)CNC(=O)[C@H](CCC(=O)O)NC(=O)C(C)(C)NC(=O)[C@@H](N)Cc1c[nH]cn1)[C@@H](C)O)[C@@H](C)O)[C@@H](C)CC)C(=O)N[C@@H](C)C(=O)N[C@@H](Cc1c[nH]c2ccccc12)C(=O)N[C@@H](CC(C)C)C(=O)N[C@H](C(=O)N[C@@H](CCC(=O)O)C(=O)N[C@@H](Cc1c[nH]cn1)C(=O)N[C@@H](CCCCN)C(=O)N[C@H](C(=O)N[C@H](C(=O)N[C@@H](CC(=O)O)C(=O)O)[C@@H](C)O)[C@@H](C)CC)[C@@H](C)CC [Compound 62] (HELM PEPTIDE1{H.[Aib].E.G.S.F.T.S.E.L.A.T.I.L.D.A.K.A.A.R.D.F.I.A.W.L.I.E.H.K.I.T.D}|PEPTIDE2{[O=C(O)CCCCCCCCCCCCCCCCCCC(=O)[*:2]].[gGlu].K.E.K.[O=C(COCCOCCN[*:1])[*:2]]}$PEPTIDE1,PEPTIDE2,17:R3-6:R2$$$V2.0)
